In the pKa sets of Baltruschat and Czodrowski (2020) one finds pKa data, which are given here for 130 molecules.

Each structure is given as a SMILES string.

For one data set the following is noted: acidic group.
The pKa is the pH at which an ionisable group is half protonated. A higher pKa goes with a weaker acid or stronger base. The molecule `O/N=C/NO` came in with a pKa of 10.7.

`COc1nc2ncncc2[nH]1` came in with a pKa of 7.73. The molecule `NCCc1ccc(O)c(O)c1` returned a pKa of 10.6. Regarding `O=S(=O)(Cc1ccccc1)c1cnn[nH]1`, the pKa was found to be 5.15. `CC(=S)Nc1ccc(Cl)cc1` came in with a pKa of 11.1. `Cc1cc([N+](=O)[O-])cc(C)c1O`: the pKa turned out to be 7.22. Consider `NC1=NS(=O)(=O)[N-]c2nc[nH]c21`, for which the pKa is 12.2. Still for that read-out and setting: the value for `C[N+](C)(C)CCCc1ccc(O)cc1` was 9.8; that for `[NH3+]CCC(=O)N[C@@H](Cc1c[nH]c[nH+]1)C(=O)O` was 2.7; that for `O=C([O-])c1ccc(NS(=O)(=O)c2ccccc2)cc1` was 7.75. On the same count and under the same terms, the value for `CCCP(=O)(O)CCC` was 3.33; that for `O=C(O)c1ccc(CCl)cc1` was 4.13. Still for that read-out and setting: the value for `c1c[nH]cn1` was 14.5; that for `COc1ccc(S)cc1` was 6.76; that for `N#CC(C#N)=NNc1ccc([N+](=O)[O-])cc1Cl` was 4.15. As to `OC(c1ccncc1)(c1ccccn1)c1ccccn1`, the pKa worked out at 13.1. For the molecule `CC1=CC(=O)C(C(C)C)=C/C1=N/c1ccc(O)cc1`, the pKa came to 8.8. Molecule `CC(C)(C(=O)O)C(C(N)=O)c1ccccc1` (configuration not stated) returned a pKa of 4.8. The same measure, in the same setting: the value for `O=C([O-])c1ccc(O)c2ncccc12` was 9.32. Still for that read-out and setting: the value for `COc1ccccc1/C=N/O` was 10.9; that for `O=C([O-])CC(=O)/C=N/O` was 8.7; that for `C=C(C)[C@H]1C[NH2+][C@H](C(=O)O)[C@H]1CC(N)=O` was 2.01. `CC[Si](C)(C)CCCC(=O)O`: the pKa was found to be 5.02. The molecule `C=C(C)C(=O)O` registered a pKa of 4.66.

As to `C(C[NH2+]CCc1nnn[nH]1)[NH2+]CCc1nnn[nH]1`, the pKa turned out to be 3.11. Turning to `O=[N+]([O-])c1ccc(C(=S)Nc2ccccc2)cc1`, the pKa came to 9.81. The molecule `O/C(=C/c1cccnc1)c1ccccc1` returned a pKa of 8.79. Same read-out and setting: as for `O=C(O)c1cnc(Br)s1`, the figure is 2.96; as for `Cc1cc(C)c(C(C(=O)O)c2ccccc2)c(C)c1` (configuration not stated), 4. For `COC(=O)Nc1ncnc2nc[nH]c12`, the pKa worked out at 9.68. Same read-out and setting: as for `O=C(O)C#Cc1ccccc1`, the figure is 2.26; as for `N#C/C(=C(\[O-])O)c1ccccc1`, 8.7; as for `Oc1ccc2cc(Br)ccc2c1`, 9.2. The molecule `[NH3+][C@H]1CC[C@@H](C(=O)O)CC1` registered a pKa of 4.6. Still for that read-out and setting: as for `O=C(O)C12CC3CC(CC(C3)C1)C2`, the figure is 4.95; as for `NC(=O)[C@H](N)[C@H](O)C(=O)O`, 2.31; as for `Cc1nc(Cc2ccccc2)c(O)o1`, 10.3. As for `OC(O)=C1SCc2ccccc21`, the pKa worked out at 5.32. On the same count and under the same terms, the value for `O=C(O)CC1[NH2+]Nc2ccccc21` (configuration not stated) was 2.9; that for `CC[NH+](CC)CC(=N\O)/C(C)=N/O` was 8.5; that for `COc1ccc(C(=O)S)cc1` was 2.79. The same measure, in the same setting: as for `NS(=O)(=O)c1cccc([N+](=O)[O-])c1`, the figure is 9.19; as for `Cn1nnc(CC(=O)O)n1`, 3.44. On the same count and under the same terms, the value for `O=[N+]([O-])Cc1ccccc1` was 6.77; that for `CNCCc1ccc(O)c(O)c1` was 10.6. For `CCCS(=O)O`, the pKa is 2.35.

Consider `[O-]c1ccccc1/C=N/O`, for which the pKa was found to be 12.1. The molecule `CC(=O)c1cccc(C(=O)O)c1` showed a pKa of 3.84. The same measure, in the same setting: the value for `CCOC(=O)COc1ccc(C(=O)c2ccc(O)c(C[NH3+])c2)c(Cl)c1Cl` was 6.38. Turning to `CC1(C)C(=O)[CH-]C(=O)CC1=O`, the pKa was 9.73. Same read-out and setting: as for `Cc1cc(C(C)(C)C)cc(C)c1C(=O)O`, the figure is 3.44; as for `CC/C(C)=C/C(=O)O`, 5.14. On the same count and under the same terms, as for `O=C([O-])c1cc(O)c(O)c(C(=O)O)[o+]1`, the figure is 1.8. With `Cc1cc(/N=N/c2nc3ccccc3s2)c(O)c2ncccc12`, the pKa amounted to 9.6. On the same count and under the same terms, as for `N#CC(C#N)Cc1ccc([N+](=O)[O-])cc1`, the figure is 10.9; as for `CN(C)Cc1cc(OCc2ccccc2)ccc1O`, 11.5. Molecule `COc1c(C)cccc1C(=O)O` gave a pKa of 3.84. The same measure, in the same setting: the value for `Cc1ccccc1[N+](C)(C)O` was 4.78; that for `CN(C)c1cc[n+](O)cc1` was 3.9. The same measure, in the same setting: the value for `C/C(=C\C=C\C(C)C(=O)O)[C@H]1C[NH2+][C@H](C(=O)[O-])[C@H]1CC(=O)O` (some centres not stated) was 3.72.

`CC[NH+](CC)Cc1cc(Br)ccc1O` showed a pKa of 7.7. Same read-out and setting: the value for `[O-]B(O)c1cccc(O)c1` was 10.8; that for `O=C1NCc2[nH]cnc2N1` was 11.5; that for `Cn1nc(/N=N/O)nc1N1CCCCC1` was 5.46.

Still in this data set, the particulars now being: basic group.
In the case of `CN(C)CC(C)(C)C`, the pKa stood at 9.75. Still for that read-out and setting: as for `NCC[n+]1ccc2c([N+](=O)[O-])cccc2c1`, the figure is 6.65; as for `N/C=N/O`, 5.05.

Molecule `O/N=C/NO` showed a pKa of 4.05.

`CN(C(=O)c1ccccc1)c1ccccn1` yielded a pKa of 1.44.

As for `COc1nc2ncncc2[nH]1`, the pKa is 3.14. Still for that read-out and setting: as for `NCCc1ccc(O)c(O)c1`, the figure is 8.89; as for `NC/C=C/C(=O)[O-]`, 9.46. The molecule `O=C1CC2OCC=C3C4CC5N(CCC56c5ccccc5N1C6C24)[C@H]3S(=O)(=O)[O-]` (some centres not stated) had a pKa of 3.2. Consider `CCC(N)C(=O)[O-]` (configuration not stated), for which the pKa is 9.67.

Molecule `Clc1ccc(/C=C/c2nnnn2-c2ccccc2)cc1` yielded a pKa of -2.54.

Turning to `OCc1cccnc1`, the pKa was 5. In the case of `Cc1ccc2c(c1)c1c3c(nccn32)CCC1`, the pKa was found to be 6.24. The same measure, in the same setting: as for `c1ccc(-c2ccc3nccn3n2)cc1`, the figure is 4.71; as for `Nc1ccc2c([N+](=O)[O-])cccc2c1`, 3.16. Same read-out and setting: the value for `Nc1ccnc2ccc3ncccc3c12` was 7.3. The same measure, in the same setting: as for `c1c[nH]cn1`, the figure is 7.07; as for `Cc1cnc(N(C)C)s1`, 6.08. In the case of `Cc1cnc2c(c1)cc(C)c1cc(C)cnc12`, the pKa came out at 5.27. Molecule `c1ccc(C2=NCCN2)nc1` yielded a pKa of 8.98. Still for that read-out and setting: as for `N#CC(C#N)=NNc1ccc([N+](=O)[O-])cc1Cl`, the figure is -0.62; as for `C1CCN(N2CCCC2)C1`, 7.16. Same read-out and setting: as for `O=C([O-])c1ccc(O)c2ncccc12`, the figure is 4.8; as for `C#CCCCCN`, 10.5.

Take `C[C@]1(N)C[C@@H]1N`: the pKa came out at 9.06. For the molecule `CC(C)(C)NC1CCCCC1`, the pKa came to 11.3.

As for `CCn1cc(C#N)c(=O)c2ccccc21`, the pKa was -1.55. On the same count and under the same terms, as for `CC1=[NH+]c2ccccc2/C1=C/C=C1\Cc2ccccc2N1C`, the figure is 1.22; as for `NCc1ccc(N)cc1`, 10. The same measure, in the same setting: as for `CN1[C@@H]2CC[C@H]1C[C@H](OC(=O)C(O)c1ccccc1)C2` (some centres not stated), the figure is 9.61. The same measure, in the same setting: the value for `CCN(CC)CCCCCCNc1c2ccc(Cl)cc2nc2ccc(OC)cc12` was 10.3; that for `C=C1[C@@H]2CC3C4N5C[C@]6(C)C[C@@H](OC(C)=O)[C@H](OC(C)=O)[C@]47C6[C@@H]5C[C@]3([C@H]1OC(C)=O)[C@@]7(O)C2` was 8.35; that for `O/C(=C/c1cccnc1)c1ccccc1` was 5.84. Molecule `COC(=O)Nc1ncnc2nc[nH]c12` returned a pKa of 2.27.

`NCC[NH2+]CCc1ccccc1` displayed a pKa of 6.59. Consider `CCCN(CC)c1ccccc1`, for which the pKa worked out at 6.39.

The molecule `N#CCCNN` gave a pKa of 5.91.

For `Brc1cnc2c(ccc3cc(Br)cnc32)c1`, the pKa was 3.9. Still for that read-out and setting: as for `Cn1cnc2cc(N)ccc21`, the figure is 6.29. Still for that read-out and setting: as for `Nc1ccc2ncncc2c1`, the figure is 3.29; as for `CC1CCCC(C(=O)[O-])N1` (configuration not stated), 10.4; as for `NCC(O)CO` (configuration not stated), 9.3. Molecule `Nc1ccc(-c2ccc(/[NH+]=C/c3ccccc3O)cc2)cc1` had a pKa of 4.75. On to `Clc1cncc(Cl)c1`, for which the pKa was 0.55. On the same count and under the same terms, the value for `C[C@@H]1[C@@H]2Cc3ccc(O)cc3[C@@]1(C)CCN2CCF` was 8.35; that for `Clc1ccccn1` was 0.72; that for `[NH3+]c1ccc(-c2cnc(-c3ccc(Br)cc3)o2)cc1` was 0.26. On the same count and under the same terms, the value for `c1ccc(-c2cc[nH+]cc2)nc1` was 1.19. As to `NC(=O)[C@H](N)[C@H](O)C(=O)O`, the pKa is 7.17. On the same count and under the same terms, the value for `Nc1c([N+](=O)[O-])ccc2ccccc12` was -1.6. The same measure, in the same setting: as for `NC(=O)CC(=O)c1cccnc1`, the figure is 8.61; as for `Oc1ccc(Cl)c2cccnc12`, 3.68; as for `O=C1N[C@@H](Cc2c[nH+]c[nH]2)C(=O)N[C@H]1Cc1cnc[nH]1`, 5.56. `Cc1ccc2[nH]cnc2c1` came in with a pKa of 5.81. On the same count and under the same terms, as for `O=C([O-])[C@@H]1O[C@H](Oc2ccc3ncccc3c2)[C@@H](O)[C@H](O)[C@H]1O`, the figure is 5. The molecule `COc1ccc(C(=O)S)cc1` registered a pKa of -4.9.

As to `c1ccc(-c2ccc3nc(C[NH+]4CCOCC4)cn3n2)cc1`, the pKa was found to be 1.4.

In the case of `CC1NCCCN1`, the pKa is 9.09. As to `CCc1cc(/N=N/c2ccc(N(C)C)cc2)ccc1C`, the pKa was determined as 2.59. The same measure, in the same setting: the value for `CNCCc1ccc(O)c(O)c1` was 8.84. The same measure, in the same setting: as for `Cc1cc(-c2cc(C)n[nH]2)[nH]n1`, the figure is 2.8; as for `OCCN1CCOCC1`, 7.18. On to `CCOCCn1c(N2CCC[NH+](CCCCn3cccn3)CC2)nc2ccccc21`, for which the pKa came out at 4.9. On the same count and under the same terms, as for `Nc1ncc(-c2ccccc2)s1`, the figure is 4.9; as for `c1nc(Cc2c[nH]c(Cc3nc(Cc4c[nH+]c[nH]4)c[nH]3)[nH+]2)c[nH]1`, 5.43; as for `C1CCc2nnc3c(c2CC1)CCCC3`, 6.03. Molecule `CN(C)C(=S)c1ccccc1` showed a pKa of -2.3.

The molecule `C(=C\C=N\c1ccccc1)/C=C/Nc1ccccc1` yielded a pKa of 8.52.

For the molecule `Cn1cncc1C[C@H]([NH3+])C(=O)[O-]`, the pKa came to 6.53. `CNCC#N` yielded a pKa of 5.26. `CN(C)c1cc[n+](O)cc1`: the pKa was -7.58. In turn, `CC(C)(C)N1NC2CCC1C2` (configuration not stated) came in with a pKa of 9.12. The same measure, in the same setting: as for `O=[PH]([O-])C([NH2+]Cc1ccncc1)c1ccccc1O` (configuration not stated), the figure is 3.25; as for `Cn1c(-c2ccccc2[O-])nc2ccccc21`, 8.92; as for `N#CC(N)c1ccccc1` (configuration not stated), 4.4. For the molecule `CCCSC(=N)c1ccccc1`, the pKa is 8.1. Same read-out and setting: the value for `CCCCNC` was 10.8; that for `Nc1ccc2nc3ccc(N)cc3cc2c1` was 6.18.
